Laboratory results reported in ChEMBL document CHEMBL3988442, “University of Dundee, Small-Polar-MMV Screening Library” (2021).

Experiments:
[1] = microbe, parasite or virus in culture; settings: Mycobacterium tuberculosis, 96 h, read-out: pIC50 (converted)
[2] = microbe, parasite or virus in culture; settings: Mycobacterium tuberculosis, 72 h, read-out: pIC50 (converted)

SMILES	IC50 [1]	IC50 [2]
OC1(CNCCN2CCc3ccccc32)CNCCOC1 (stereo not drawn)	> 50.1 µM	> 50.1 µM
O=C1CC2(CCN(Cc3cccs3)C2)CN1c1cccc(F)c1 (stereo not drawn)	18.6 µM	1.43 µM
CC(C)NCc1nc(-c2ccc3c(c2)OCO3)c[nH]1	> 50.1 µM	> 50.1 µM
CN(Cc1ccc(Cl)s1)C(=O)Cn1nc(-c2ccc(F)cc2)oc1=O	> 50.1 µM	> 50.1 µM
CC(C)CC(O)CNC(=O)c1cc(F)ccc1F (stereo not drawn)	57.2 µM	238 µM
Cn1cc(C(=O)N[C@@H]2CN(Cc3ccc(F)cc3)[C@@H]3CCCO[C@@H]32)cn1	> 50.1 µM	> 50.1 µM
CCO[C@H]1CN(c2nc(-c3ccccc3)no2)C[C@@H]1O	> 501 µM	262 µM
CNS(=O)(=O)CC1CCCN1c1ncc(Br)cn1 (stereo not drawn)	> 501 µM	289 µM
CCOCCN1CCN(Cc2nnc(OCC)s2)CC1	> 501 µM	> 501 µM
CCCNC(=O)c1nnn(-c2ccccc2OC)c1C	6.03 µM	191 µM
O=C(Cc1ccc(-n2cccn2)cc1)N1CCCC(n2cccn2)C1 (stereo not drawn)	> 50.1 µM	> 50.1 µM
COc1ccnc(NCc2ccc(CO)c(F)c2)n1	> 501 µM	> 501 µM
Fc1cccc(OC2CCN(CCn3cc4ccccc4n3)CC2)c1	26.1 µM	> 50.1 µM
O=C(NC1=NCCS1)c1sccc1C1CC1	398 µM	232 µM
COc1ccc(C)cc1CCN	277 µM	272 µM
Nc1nc(CCCNC(=O)Cc2ccsc2)cs1	> 501 µM	> 501 µM
N#CCc1ccc(CN)cc1	135 µM	182 µM
CCCNC(=O)c1cc(C(C)C)on1	44.3 µM	9.31 µM
CCOC(=O)c1ccc(CN2CCOCC2)cn1	> 501 µM	> 501 µM
Cc1ccc(-c2noc(CNS(C)(=O)=O)n2)cc1	> 501 µM	248 µM
Cc1nsc(C(=O)NCCc2ccc(F)cc2)n1	12.5 µM	1.84 µM
CC(C)n1nccc1NC(=O)NCCc1nc2ccc(F)cc2n1C	> 50.1 µM	> 50.1 µM
CCCc1nc(C)cc(N2CCC3(CCC(=O)N(CCO)C3)CC2)n1	> 50.1 µM	> 50.1 µM
O=C(CNc1ccccc1F)N1CCCCC1	36.6 µM	71.6 µM
CCN1C(=O)[C@H]2CN(CC(C)C)C[C@H]2C12CCN(S(C)(=O)=O)CC2	> 50.1 µM	> 50.1 µM
CCOC1CCN(CCc2nc(-c3cccc(Cl)c3)no2)CC1	28.2 µM	32.4 µM

SMILES	IC50 [1]	IC50 [2]
COc1cccc(OC2CNC2)c1	> 501 µM	> 501 µM
NCc1ccncc1OCc1ccccc1	> 501 µM	134 µM
CC(C)OCCn1nnnc1Cc1ccc(Br)cc1	14.5 µM	35.5 µM
CC(C)c1nnc(CN(C)Cc2ccccc2-c2ccccc2)o1	11.8 µM	15.8 µM
CC(O)CNCCNCc1ccc(-c2ccccc2)o1 (stereo not drawn)	113 µM	275 µM
NCCC1CN(Cc2cc3ccccc3s2)CCO1 (stereo not drawn)	332 µM	308 µM
CNC(=O)[C@@H](C)NC(=O)c1ccc(-c2ccc(C)o2)s1	278 µM	297 µM
FC(F)(F)c1ccc(-c2cnc(C3CCCN3)cn2)cc1 (stereo not drawn)	2.02 µM	13.9 µM
CCN(CCn1cccn1)C(=O)c1cc(C(C)C)no1	> 501 µM	> 501 µM
NCCSCc1ccccc1F	275 µM	231 µM
O=C1CCC2(CCN(Cc3cscn3)CC2)CN1CCCO	> 50.1 µM	> 50.1 µM
COc1cccc(CNCc2cccnc2-n2cccn2)c1OC	> 50.1 µM	> 50.1 µM
Cc1ccc(CN2CCC3(CC(=O)N(c4cccc(F)c4)C3)C2)o1 (stereo not drawn)	> 50.1 µM	20.3 µM
CC(C)c1cc(N)[nH]n1	> 501 µM	> 501 µM
CC(O)(CNc1ncccc1F)C1CCCC1 (stereo not drawn)	262 µM	142 µM
CCc1nc(CN(C)Cc2ncc(-c3cccs3)o2)cs1	31.4 µM	31.1 µM
COCC(C)Nc1cccc(F)c1C#N (stereo not drawn)	> 501 µM	> 501 µM
COCC(C)NC(=O)CNc1ccc(OC)c(Br)c1 (stereo not drawn)	184 µM	172 µM
OCC(Nc1ncccc1Br)c1ccccc1 (stereo not drawn)	327 µM	184 µM
c1cn(C2CCNCC2)nn1	409 µM	354 µM
CC(C)c1cc(C(=O)N2CCN(Cc3ccsc3)CC2)n[nH]1	39.7 µM	28.4 µM
CSCCNC(=O)c1coc(COc2ccc3sc(C)nc3c2)n1	> 50.1 µM	> 50.1 µM
CCCNc1nnc(SCC(C)(C)O)s1	159 µM	297 µM
O=C(NCc1n[nH]c2c1CCCCC2)c1cnn2c1CCCC2	> 50.1 µM	> 50.1 µM
CCOc1ccccc1NC(=O)CSc1c[nH]nn1	195 µM	> 501 µM
O=C(NCc1ccc(CO)cc1)C1CCOc2ccccc2C1 (stereo not drawn)	12.2 µM	> 50.1 µM

SMILES	IC50 [1]	IC50 [2]
COCCNC(=O)c1cc(-c2ccccc2F)no1	127 µM	195 µM
COc1cccc(CNc2ccccn2)c1O	> 501 µM	> 501 µM
CCSc1nnc(-c2ccc[nH]2)o1	188 µM	169 µM
Cc1nc(Cn2cc(S(=O)(=O)N(C)C)ccc2=O)cs1	> 501 µM	326 µM
CC(=O)NCC(Cc1cccc(F)c1)n1cccc1 (stereo not drawn)	42.5 µM	> 50.1 µM
CCCN(CCC)S(=O)(=O)N1CCC2(CC1)OCCO2	> 501 µM	149 µM
CCCN(CCn1c(=O)oc2ccccc21)CC1CC1	> 50.1 µM	> 50.1 µM
Cc1cccc(NC(=O)NCc2c(C)noc2C)n1	> 501 µM	238 µM
O=C1NC(=O)c2c(O)cccc21	254 µM	196 µM
CCc1cc(CN(C)C(=O)c2cnon2)on1	> 50.1 µM	> 50.1 µM
CCCc1nc(N(C)Cc2ccco2)c2c(n1)c(C)nn2CC	12 µM	25.2 µM
O=C(O)c1cc(-c2ccoc2)cc(S(=O)(=O)NC2CC2)c1	> 50.1 µM	> 50.1 µM
CN(C1CCCCC1)S(=O)(=O)NC1CCCCNC1=O (stereo not drawn)	> 501 µM	> 501 µM
CC(C)CCC(=O)N1CCN(CC(O)C(F)(F)F)CC1 (stereo not drawn)	30.2 µM	42 µM
COc1ccc(CNC(C)c2ccc(Cl)c(Cl)c2)c(OC)c1OC (stereo not drawn)	> 50.1 µM	45.1 µM
NCC(=O)N1CCCC(COc2ccc(F)cc2)C1 (stereo not drawn)	> 501 µM	220 µM
CCOC(=O)c1cnn(-c2ccc(OCC)cc2)c1N	53.9 µM	81.7 µM
OCCCN1CCCN(Cc2ccc(F)cc2)CC1	> 501 µM	186 µM
N[C@@H]1CCN(Cc2cc(F)cc(C(F)(F)F)c2)C[C@H]1O	> 501 µM	266 µM
O=C(NCCn1cccc1)c1ccc(Cl)cn1	52.9 µM	57.9 µM
C=Cc1ccc(CN2C(=O)C3(CCNCC3)Nc3ccccc32)cc1	26.5 µM	28.2 µM
N#Cc1nc(NCCSCCCO)ccc1Cl	418 µM	221 µM
COCCNS(=O)(=O)c1cccc2c1CN(C(=O)c1ccoc1)CC2	> 50.1 µM	> 50.1 µM
CC(N)Cc1nc(-c2ccccc2)no1 (stereo not drawn)	115 µM	173 µM
O=C(c1cnsn1)N1CCN(Cc2ccc(Cl)s2)CC1	71 µM	45.6 µM
Cc1nccn1C1CCCN(C(=O)c2ccc(N3CCCC3)nn2)C1 (stereo not drawn)	> 50.1 µM	> 50.1 µM

SMILES	IC50 [1]	IC50 [2]
O=C(NCc1ccc(Br)o1)[C@@H]1CCCO1	> 501 µM	242 µM
COc1ccc(-n2cc(CNC(=O)c3ccccn3)nn2)cc1	> 50.1 µM	> 50.1 µM
COc1cccc(C(=O)N2CCOC3(CCCN(C(C)=O)C3)C2)c1 (stereo not drawn)	> 50.1 µM	> 50.1 µM
CC1CN(C(=O)c2cnsn2)c2cccc(Cl)c2O1 (stereo not drawn)	> 501 µM	67.6 µM
CC(C)c1cc(C(=O)N2CC(c3ccccn3)C2)no1	60.5 µM	70.5 µM
Cc1nn2c(NCC(=O)NC3CC3)cc(-c3ccccc3)nc2c1C	12.1 µM	13.4 µM
O=C(NCC1(O)COCCN(Cc2cccc(O)c2)C1)c1cscn1 (stereo not drawn)	> 50.1 µM	> 50.1 µM
CCc1nn(C)c(Cl)c1CN1CCN(c2ccc(C(N)=O)cn2)CC1	> 50.1 µM	> 50.1 µM
COc1ccc(C(N)c2ccc(OC)cc2OC)cc1 (stereo not drawn)	291 µM	186 µM
NS(=O)(=O)C1CCN(Cc2ccc(Br)c(F)c2)C1 (stereo not drawn)	> 501 µM	171 µM
c1ccc(NCCNc2ccccn2)cc1	217 µM	230 µM
N#CCC1(O)CN(S(=O)(=O)C=Cc2ccc(Cl)cc2)C1	> 501 µM	287 µM
CN1CCOC(CNCCOc2cccc(C#N)c2)C1 (stereo not drawn)	> 50.1 µM	> 50.1 µM
CC(C)Nc1nc(N2CCCC2)nc2c1CN(C(C)C)CC2	15.8 µM	26.5 µM
CC(C)Sc1nnc(-c2cccnc2)o1	219 µM	8.8 µM
CC(C)C(C)N(C)Cc1nnc(-c2ccc(Br)s2)o1 (stereo not drawn)	20.4 µM	48.4 µM
CCc1cccc2c1OCCC2N (stereo not drawn)	> 501 µM	> 501 µM
CCc1nc(CN(C)Cc2nnc(-c3cccs3)o2)cs1	8.56 µM	12.2 µM
CCC(CC)C(CN)N(C)C (stereo not drawn)	204 µM	78.1 µM
CS(=O)(=O)NC[C@H]1OC[C@@H]2CCN(CCc3ccccc3)C[C@@H]21	> 50.1 µM	> 50.1 µM
COCCN1CCCN(C(=O)c2cc(Cl)c[nH]2)CC1	> 501 µM	195 µM
NCCn1nc(C2CCN(Cc3ccccc3Cl)C2)c2nccnc21 (stereo not drawn)	> 50.1 µM	> 50.1 µM
CCCc1nnc(NC2CCN(C(=O)OCC)CC2)o1	72 µM	180 µM
Cc1cccnc1CN(C)C(C(=O)O)c1ccc(-n2cccn2)cc1 (stereo not drawn)	20.1 µM	27 µM
Nc1nccnc1C(=O)NCc1cc(Br)cs1	132 µM	93.5 µM
COc1ccc(CCN)c(O)c1	435 µM	153 µM
